The target of test [1] is T1, Nitric oxide synthase 3 (Homo sapiens, UniProt P29474).
T1 sequence (P29474 whole entry): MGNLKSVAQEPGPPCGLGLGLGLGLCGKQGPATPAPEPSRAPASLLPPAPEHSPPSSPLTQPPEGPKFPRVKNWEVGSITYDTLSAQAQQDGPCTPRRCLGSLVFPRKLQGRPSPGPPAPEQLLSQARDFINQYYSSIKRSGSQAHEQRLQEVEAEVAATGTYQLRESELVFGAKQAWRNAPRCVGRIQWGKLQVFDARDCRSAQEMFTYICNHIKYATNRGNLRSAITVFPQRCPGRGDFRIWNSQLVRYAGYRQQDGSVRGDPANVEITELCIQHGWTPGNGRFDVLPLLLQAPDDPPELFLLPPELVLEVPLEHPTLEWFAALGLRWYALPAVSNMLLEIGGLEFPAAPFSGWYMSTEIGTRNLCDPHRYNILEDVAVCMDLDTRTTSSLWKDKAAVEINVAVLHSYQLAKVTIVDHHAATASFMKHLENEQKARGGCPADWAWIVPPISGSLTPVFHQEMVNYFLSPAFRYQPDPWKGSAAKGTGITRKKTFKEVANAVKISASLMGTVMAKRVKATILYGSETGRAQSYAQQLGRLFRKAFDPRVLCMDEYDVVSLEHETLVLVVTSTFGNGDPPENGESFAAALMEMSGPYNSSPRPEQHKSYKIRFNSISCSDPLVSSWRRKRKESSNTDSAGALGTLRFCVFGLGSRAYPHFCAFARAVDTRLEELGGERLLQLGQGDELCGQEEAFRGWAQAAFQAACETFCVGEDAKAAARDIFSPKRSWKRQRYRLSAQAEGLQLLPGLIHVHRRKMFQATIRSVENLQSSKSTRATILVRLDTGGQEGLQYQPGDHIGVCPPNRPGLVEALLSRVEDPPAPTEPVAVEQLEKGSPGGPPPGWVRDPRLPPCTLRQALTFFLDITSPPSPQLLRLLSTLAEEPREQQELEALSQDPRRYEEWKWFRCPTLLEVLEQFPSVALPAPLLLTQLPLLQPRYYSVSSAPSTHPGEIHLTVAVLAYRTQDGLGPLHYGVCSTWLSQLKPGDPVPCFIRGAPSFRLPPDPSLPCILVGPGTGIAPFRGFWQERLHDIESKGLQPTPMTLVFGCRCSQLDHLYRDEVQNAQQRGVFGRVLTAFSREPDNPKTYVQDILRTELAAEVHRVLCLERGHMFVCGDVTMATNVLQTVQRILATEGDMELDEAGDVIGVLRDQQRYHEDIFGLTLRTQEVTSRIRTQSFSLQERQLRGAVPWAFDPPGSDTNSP
The test can be described thus: Inhibitory constant for the inhibition of human Endothelial nitric oxide synthase.

The target in test [2] is Nitric oxide synthase, inducible (Homo sapiens, UniProt P35228). The test can be described thus: Inhibitory constant for the inhibition of human Inducible nitric oxide synthase.
The target in test [3] is Nitric oxide synthase 1 (Homo sapiens, UniProt P29475). Kind of test: Inhibitory constant for the inhibition of human Neuronal nitric oxide synthase.
Sequence of Nitric oxide synthase 1 (P29475 whole entry): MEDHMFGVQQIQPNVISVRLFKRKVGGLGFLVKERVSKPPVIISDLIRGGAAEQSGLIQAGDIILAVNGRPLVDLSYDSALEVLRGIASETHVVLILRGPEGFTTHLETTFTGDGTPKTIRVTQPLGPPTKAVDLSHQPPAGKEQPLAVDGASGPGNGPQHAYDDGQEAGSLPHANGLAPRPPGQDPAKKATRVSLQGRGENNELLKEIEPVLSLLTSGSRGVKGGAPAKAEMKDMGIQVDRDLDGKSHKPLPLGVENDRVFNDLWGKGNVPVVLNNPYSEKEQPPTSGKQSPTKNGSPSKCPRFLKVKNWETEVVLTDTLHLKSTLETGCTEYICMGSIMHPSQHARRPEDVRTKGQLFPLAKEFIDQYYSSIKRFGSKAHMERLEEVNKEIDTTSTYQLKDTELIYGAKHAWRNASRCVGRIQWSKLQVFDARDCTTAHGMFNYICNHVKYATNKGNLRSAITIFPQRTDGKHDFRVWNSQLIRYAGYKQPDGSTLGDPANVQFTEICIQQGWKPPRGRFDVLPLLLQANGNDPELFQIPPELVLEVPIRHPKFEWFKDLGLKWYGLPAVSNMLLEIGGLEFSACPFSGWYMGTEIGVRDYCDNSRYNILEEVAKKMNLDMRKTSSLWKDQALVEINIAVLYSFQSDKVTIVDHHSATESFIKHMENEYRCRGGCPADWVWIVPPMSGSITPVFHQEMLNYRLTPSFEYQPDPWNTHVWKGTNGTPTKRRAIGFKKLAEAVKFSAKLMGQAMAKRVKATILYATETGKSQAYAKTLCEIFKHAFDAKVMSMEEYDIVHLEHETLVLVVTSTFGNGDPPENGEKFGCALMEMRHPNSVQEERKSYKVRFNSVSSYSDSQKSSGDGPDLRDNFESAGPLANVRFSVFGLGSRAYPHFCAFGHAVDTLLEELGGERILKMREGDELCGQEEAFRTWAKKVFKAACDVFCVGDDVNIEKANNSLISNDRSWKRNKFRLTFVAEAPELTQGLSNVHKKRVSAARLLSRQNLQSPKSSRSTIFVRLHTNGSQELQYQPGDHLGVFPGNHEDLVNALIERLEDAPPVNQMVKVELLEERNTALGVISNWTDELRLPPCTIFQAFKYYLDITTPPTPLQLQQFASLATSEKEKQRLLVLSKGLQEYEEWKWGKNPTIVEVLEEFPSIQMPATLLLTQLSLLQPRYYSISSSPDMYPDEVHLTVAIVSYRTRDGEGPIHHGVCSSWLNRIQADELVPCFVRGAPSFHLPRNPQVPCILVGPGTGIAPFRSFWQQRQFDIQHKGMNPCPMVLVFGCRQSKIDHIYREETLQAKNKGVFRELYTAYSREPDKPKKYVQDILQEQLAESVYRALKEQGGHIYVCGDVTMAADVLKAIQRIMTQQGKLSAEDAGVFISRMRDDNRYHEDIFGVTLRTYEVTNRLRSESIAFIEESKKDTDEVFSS

Sequence of Nitric oxide synthase, inducible (P35228 whole entry): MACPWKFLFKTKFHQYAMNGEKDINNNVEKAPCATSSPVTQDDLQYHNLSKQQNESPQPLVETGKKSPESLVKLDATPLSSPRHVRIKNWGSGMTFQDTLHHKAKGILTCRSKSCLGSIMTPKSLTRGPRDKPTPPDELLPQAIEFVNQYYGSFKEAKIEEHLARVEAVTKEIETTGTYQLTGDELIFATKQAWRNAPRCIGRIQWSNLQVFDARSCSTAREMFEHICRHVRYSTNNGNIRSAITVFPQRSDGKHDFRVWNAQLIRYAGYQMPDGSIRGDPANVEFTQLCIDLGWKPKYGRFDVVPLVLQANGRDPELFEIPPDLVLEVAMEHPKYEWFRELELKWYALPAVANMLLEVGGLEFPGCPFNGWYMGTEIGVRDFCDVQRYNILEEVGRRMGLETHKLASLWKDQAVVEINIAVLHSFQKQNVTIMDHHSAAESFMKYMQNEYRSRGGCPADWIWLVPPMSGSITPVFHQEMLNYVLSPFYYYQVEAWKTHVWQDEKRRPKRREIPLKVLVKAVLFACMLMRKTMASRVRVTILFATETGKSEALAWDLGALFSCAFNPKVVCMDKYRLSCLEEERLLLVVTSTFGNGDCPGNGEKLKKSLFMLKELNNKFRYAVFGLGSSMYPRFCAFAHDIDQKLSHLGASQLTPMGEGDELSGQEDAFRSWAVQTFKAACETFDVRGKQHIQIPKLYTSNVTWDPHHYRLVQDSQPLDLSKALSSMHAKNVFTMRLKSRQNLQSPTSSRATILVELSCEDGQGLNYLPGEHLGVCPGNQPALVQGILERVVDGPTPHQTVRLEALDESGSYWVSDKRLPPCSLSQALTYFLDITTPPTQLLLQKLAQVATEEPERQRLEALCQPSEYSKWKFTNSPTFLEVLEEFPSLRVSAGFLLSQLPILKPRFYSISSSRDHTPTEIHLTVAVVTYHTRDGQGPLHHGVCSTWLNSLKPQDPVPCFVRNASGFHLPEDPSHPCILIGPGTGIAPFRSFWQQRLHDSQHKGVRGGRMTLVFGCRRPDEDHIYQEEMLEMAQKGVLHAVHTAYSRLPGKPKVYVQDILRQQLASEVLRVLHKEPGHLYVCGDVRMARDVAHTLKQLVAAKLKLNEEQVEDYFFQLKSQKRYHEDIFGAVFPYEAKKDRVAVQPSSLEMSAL

In general, Ki refers to a dissociation constant, usually derived from enzyme kinetics or from competition with a known ligand. Lower therefore signals tighter binding. `N=C(N)Nc1cccc(CC(N)C(=O)O)c1` (stereo not given): the Ki was 46000 nM in test [1], 100000 nM in test [2] and 44000 nM in test [3].

Turning to `CC(=N)NCCC[C@H](N)C(=O)O` [L-NIO], the Ki in test [1] was determined as 810 nM; in test [2], 340 nM.

Consider `CC(=N)Nc1cccc(CC(N)C(=O)O)c1` (stereo not given), for which the inhibition constant (Ki) in test [1] came to 39000 nM; in test [2], 82000 nM; in test [3], 29000 nM.

As to `CNC(N)=Nc1cccc(CC(N)C(=O)O)c1` (stereo not given), the figures for the inhibitory constant (Ki) in test [1], in test [2] and in test [3] were 8800 nM, 96000 nM and 8400 nM, respectively.

As for `CC(=N)Nc1ccccc1CC(N)C(=O)O` (stereo not given), the Ki in test [1] came to 1600 nM; in test [2] it was 1900 nM; in test [3], 1300 nM.

As to `NC(N)=Nc1ccccc1CC(N)C(=O)O` (stereo not given), the inhibitory constant (Ki) is 250 nM in test [1], 2600 nM in test [2] and 370 nM in test [3].

For `C/N=C(/N)Nc1ccccc1CC(N)C(=O)O` (stereo not given), the Ki in test [1] was found to be 270 nM; in test [2], 600 nM; in test [3], 410 nM.
